Laboratory results as given in PubChem BioAssay AID192 (DTP/NCI, 2004).
Where “and” joins values, the source holds several entries; their conditions need not be identical. Identical values can stand only once. Toxic doses and inconclusive results are not listed. Rule for the calls: active = survival T/C of 150% or more; inactive = T/C below 125% in these data. Square brackets hold non-standard residues; d marks the D form. Peptide text beside a SMILES is read from it. * marks the point of attachment. ξ: configuration not given here. ξF = NC(Cc1ccccc1)C(=O)O; ξE = NC(CCC(=O)O)C(=O)O; Cbz = O=C(OCc1ccccc1)*; Sar = CNCC(=O)O

System: BDF1 mice, B16 melanoma ip, median survival T/C
Test: NCI In Vivo Anticancer Drug Screen. Data for tumor model B16 Melanoma (intraperitoneal) in B6D2F1 (BDF1) mice
Details: endpoint: median survival time, higher = longer survival
In short: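 Survival or tumor size is measured after treatment of tumor-bearing mice and normalised to the vehicle-treated control group.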

[1] = dose: 100.0 mg/kg/injection, schedule: Q04DX003 (ip), vehicle: Klucel (hydroxypropylcellulose) (HPC)
[2] = dose: 200.0 mg/kg/injection, schedule: Q04DX003 (ip), vehicle: Klucel (hydroxypropylcellulose) (HPC)
[3] = dose: 400.0 mg/kg/injection, schedule: Q04DX003 (ip), vehicle: Klucel (hydroxypropylcellulose) (HPC)
[4] = dose: 100.0 mg/kg/injection, schedule: Q04DX003 (ip), vehicle: saline with Tween-80
[5] = dose: 200.0 mg/kg/injection, schedule: Q04DX003 (ip), vehicle: saline with Tween-80
[6] = dose: 400.0 mg/kg/injection, schedule: Q04DX003 (ip), vehicle: saline with Tween-80
[7] = dose: 1.25 mg/kg/injection, schedule: Q01DX009 (ip), vehicle: saline with Tween-80
[8] = dose: 5.0 mg/kg/injection, schedule: Q01DX009 (ip), vehicle: saline with Tween-80
[9] = dose: 50.0 mg/kg/injection, schedule: Q01DX009 (ip), vehicle: saline with Tween-80
[10] = dose: 100.0 mg/kg/injection, schedule: Q01DX009 (ip), vehicle: saline with Tween-80
[11] = dose: 200.0 mg/kg/injection, schedule: Q01DX009 (ip), vehicle: saline with Tween-80
[12] = dose: 6.25 mg/kg/injection, schedule: Q01DX009 (ip), vehicle: Klucel (hydroxypropylcellulose) (HPC)
[13] = dose: 12.5 mg/kg/injection, schedule: Q01DX009 (ip), vehicle: Klucel (hydroxypropylcellulose) (HPC)
[14] = dose: 100.0 mg/kg/injection, schedule: Q01DX009 (ip), vehicle: Klucel (hydroxypropylcellulose) (HPC)
[15] = dose: 200.0 mg/kg/injection, schedule: Q01DX009 (ip), vehicle: Klucel (hydroxypropylcellulose) (HPC)
[16] = dose: 25.0 mg/kg/injection, schedule: Q04DX003 (ip), vehicle: Klucel (hydroxypropylcellulose) (HPC)
[17] = dose: 50.0 mg/kg/injection, schedule: Q04DX003 (ip), vehicle: Klucel (hydroxypropylcellulose) (HPC)

Measured: T/C

Cc1ccc(NC(=O)c2cccc(C(=O)Nc3ccc(C)c(C)c3)c2)cc1C
inactive: [1] 97 % of control | [2] 90 % of control | [3] 93 % of control

Cc1c(Cl)cc(Cl)c(N)c1Cl
inactive: [4] 86 % of control | [5] 93 % of control | [6] 90 % of control

CCCCCCCCCCCCCCCC[N+](C)(C)C
inactive: dose: 0.5 mg/kg/injection, schedule: Q04DX003 (ip), vehicle: saline 95 % of control | dose: 1.0 mg/kg/injection, schedule: Q01DX009 (ip), vehicle: saline 93 % of control | dose: 1.0 mg/kg/injection, schedule: Q04DX003 (ip), vehicle: saline 95 % of control | [7] 102 % of control | dose: 2.0 mg/kg/injection, schedule: Q01DX009 (ip), vehicle: saline 93 % of control | dose: 2.0 mg/kg/injection, schedule: Q04DX003 (ip), vehicle: saline 95 % of control | dose: 2.5 mg/kg/injection, schedule: Q01DX009 (ip), vehicle: saline with Tween-80 107 % of control | dose: 2.75 mg/kg/injection, schedule: Q01DX009 (ip), vehicle: saline 93 % of control | dose: 4.0 mg/kg/injection, schedule: Q01DX009 (ip), vehicle: saline 91 % of control | [8] 91 % of control | dose: 5.5 mg/kg/injection, schedule: Q01DX009 (ip), vehicle: saline 93 % of control

COc1cccc2c1C(=O)c1c(O)c3c(c(O)c1C2=O)CC(O)(C(C)=O)CC3OC1CC([N+](C)(C)C)C(O)C(C)O1 (stereo unspecified)
inactive: dose: 1.56 mg/kg/injection, schedule: Q01DX009 (ip), vehicle: water 110 % of control | dose: 3.13 mg/kg/injection, schedule: Q01DX009 (ip), vehicle: water 107 % of control | dose: 6.25 mg/kg/injection, schedule: Q01DX009 (ip), vehicle: water 98 % of control | dose: 12.5 mg/kg/injection, schedule: Q01DX009 (ip), vehicle: water 110 % of control | dose: 25.0 mg/kg/injection, schedule: Q01DX009 (ip), vehicle: water 106 % of control

CN(CC(=O)NC(Cc1ccccc1)C(=O)O)C(=O)OCc1ccccc1 (stereo unspecified) (Cbz-[Sar]-[ξF]-OH)
inactive: [9] 97 % of control | [10] 96 % of control | [11] 103 % of control

O=c1[nH]cc(F)c(=O)n1-c1ccco1
inactive: dose: 12.5 mg/kg/injection, schedule: Q01DX011 (ip), vehicle: saline with Tween-80 122 % of control | dose: 25.0 mg/kg/injection, schedule: Q01DX011 (ip), vehicle: saline with Tween-80 115 % of control

O=C1c2ccccc2C(=O)N1CCC[P+](c1ccccc1)(c1ccccc1)c1ccccc1
inactive: dose: 1.56 mg/kg/injection, schedule: Q01DX009 (ip), vehicle: Klucel (hydroxypropylcellulose) (HPC) 100 % of control | dose: 3.12 mg/kg/injection, schedule: Q01DX009 (ip), vehicle: Klucel (hydroxypropylcellulose) (HPC) 102 % of control | [12] 96 % of control | [13] 100 % of control

COc1nc(NC(C)C)nc(NC(C)C)n1
inactive: [9] 102 % of control | dose: 66.0 mg/kg/injection, schedule: Q01DX009 (ip), vehicle: saline with Tween-80 93 % of control | [10] 86 % of control | dose: 150.0 mg/kg/injection, schedule: Q01DX009 (ip), vehicle: saline with Tween-80 97 % of control | [11] 105 % of control

NC(Cc1ccc(O)cc1)C(=O)O (stereo unspecified)
inactive: [10] 110 % of control | [4] 107 % of control | [11] 87 % of control | [5] 104 % of control | dose: 400.0 mg/kg/injection, schedule: Q01DX009 (ip), vehicle: saline with Tween-80 90 % of control | [6] 104 % of control

CC(=O)c1cccc(NC(=O)Nc2ccccc2)c1
inactive: [14] 96 % of control | [15] 91 % of control | dose: 400.0 mg/kg/injection, schedule: Q01DX009 (ip), vehicle: Klucel (hydroxypropylcellulose) (HPC) 96 % of control

CC1=CCC(C(C)C)C=C1 (stereo unspecified)
inactive: dose: 25.0 mg/kg/injection, schedule: Q01DX009 (ip), vehicle: Klucel (hydroxypropylcellulose) (HPC) 92 % of control | dose: 50.0 mg/kg/injection, schedule: Q01DX009 (ip), vehicle: Klucel (hydroxypropylcellulose) (HPC) 94 % of control | [14] 94 % of control | [15] 89 % of control

FC(F)(F)C(=Cc1nc2ccccc2s1)C(F)(F)F
inactive: [12] 103 % of control | [13] 100 % of control

CC(C)(CO)C(O)C(=O)NNCc1ccccc1 (stereo unspecified)
inactive: [16] 102 % of control | dose: 25.0 mg/kg/injection, schedule: Q04DX003 (ip), vehicle: saline 95 % of control | [17] 90 % of control | dose: 50.0 mg/kg/injection, schedule: Q04DX003 (ip), vehicle: saline 99 % of control | dose: 100.0 mg/kg/injection, schedule: Q04DX003 (ip), vehicle: saline 100 % of control | [2] 92 % of control | dose: 200.0 mg/kg/injection, schedule: Q04DX003 (ip), vehicle: saline 100 % of control | [3] 95 % of control | dose: 400.0 mg/kg/injection, schedule: Q04DX003 (ip), vehicle: saline 91 % of control

COc1ccc2c3c1OC1CC(O)C=CC31CCN(C)C2 (stereo unspecified)
inactive: [7] 106 % of control | dose: 2.5 mg/kg/injection, schedule: Q01DX009 (ip), vehicle: saline 103 % of control | [8] 105 % of control and 113 % of control | dose: 10.0 mg/kg/injection, schedule: Q01DX009 (ip), vehicle: saline with Tween-80 95 % of control

NC(=O)c1ccc[n+](Cc2c(Cl)cccc2Cl)c1
inactive: dose: 0.75 mg/kg/injection, schedule: Q01DX009 (ip), vehicle: saline 99 % of control | dose: 1.5 mg/kg/injection, schedule: Q01DX009 (ip), vehicle: saline 96 % of control and 102 % of control | dose: 3.0 mg/kg/injection, schedule: Q01DX009 (ip), vehicle: saline 102 % of control and 111 % of control | dose: 6.0 mg/kg/injection, schedule: Q01DX009 (ip), vehicle: saline 98 % of control | dose: 12.0 mg/kg/injection, schedule: Q01DX009 (ip), vehicle: saline 98 % of control and 99 % of control | dose: 24.0 mg/kg/injection, schedule: Q01DX009 (ip), vehicle: saline 105 % of control

[N-]=C(CC(=O)c1ccccc1)c1ccccc1.[N-]=C(CC(=O)c1ccccc1)c1ccccc1.[Ni+2]
inactive: dose: 3.0 mg/kg/injection, schedule: Q04DX003 (ip), vehicle: Klucel (hydroxypropylcellulose) (HPC) 86 % of control | dose: 6.0 mg/kg/injection, schedule: Q04DX003 (ip), vehicle: Klucel (hydroxypropylcellulose) (HPC) 93 % of control | dose: 12.0 mg/kg/injection, schedule: Q04DX003 (ip), vehicle: Klucel (hydroxypropylcellulose) (HPC) 88 % of control

Cc1ccc(NS(=O)(=O)c2ccc([N+](=O)[O-])cc2)cc1
inactive: [16] 115 % of control | [17] 103 % of control | [1] 108 % of control | [2] 97 % of control | [3] 115 % of control

COc1ccc(C2=CN(S(=O)(=O)c3ccc(C)cc3)CCc3ccccc32)cc1
inactive: [16] 112 % of control | [17] 110 % of control | [1] 91 % of control and 111 % of control | [3] 90 % of control

NCC(=O)NCC(=O)NC(CCC(=O)O)C(=O)O (stereo not drawn) (H-Gly-Gly-[ξE]-OH)
inactive: dose: 50.0 mg/kg/injection, schedule: Q01DX009 (ip), vehicle: saline 101 % of control | dose: 100.0 mg/kg/injection, schedule: Q01DX009 (ip), vehicle: saline 97 % of control | dose: 200.0 mg/kg/injection, schedule: Q01DX009 (ip), vehicle: saline 94 % of control | dose: 400.0 mg/kg/injection, schedule: Q01DX009 (ip), vehicle: saline 94 % of control

O=C(O)C1OC1C(=O)O (stereo unspecified)
inactive: dose: 75.0 mg/kg/injection, schedule: Q01DX009 (ip), vehicle: saline 120 % of control | dose: 300.0 mg/kg/injection, schedule: Q01DX009 (ip), vehicle: saline 118 % of control

CCOC(=O)c1cnc(SC)nc1Sc1ccc(Cl)cc1
inactive: [1] 100 % of control | [2] 99 % of control | [3] 89 % of control
